Test: Blood pressure, 24-h telemetric method, normotensive rats
Format: in vivo, rat
Details: telemetry, 5 mg/kg b.w., first 15 or 15 and 30 min after 1st, 7th and 14th administration, vs control
Procedure: The blood pressure of rats treated with the tested compound was measured for a 24 h period after ip treatment (5 mg/kg b.w.) with a special telemetric system Stellar (TSE-Systems, Germany).
Surgery: The operation was carried out over 30 min under sterile conditions. Rats were anaesthetized with ketamine and xylasine (intramuscular injection: 100 mg/kg and 10 mg/kg). Before surgery and for 7 days after, the animals were also treated with cefuroxime (20 mg/kg/day) via intramuscular injection and ketoprofen (5 mg/kg/day) via ip injection. […] The transmitter was sutured to the peritoneal cavity.
The rats were individually caged for 2 weeks to heal after surgical cut. The animals were then placed in pairs in cages to reduce their isolation stress. Blood pressure was measured: before ip administration of the compounds – time 0 min and 24 h thereafter.

Cl.N=C(N)NN=Cc1c(Cl)cc(O)cc1Cl [4-OH-Guanabenz, 2-[(2,6-Dichloro-4-hydroxyphenyl)methylene]hydrazinecarboximidamide Hydrochloride]
effect on systolic and diastolic blood pressure (in words): significantly higher

Source: article PMC10539439 (Pharmacological Reports, 2023)
